The structures appear in SMILES notation.

From US10195243B2, “Process of making wine from a whole grape bunch, process of making pomace juice and powder, and method of producing beverages on the basis of juice and powder from a grape bunch” (priority 2014, dated 2019) come the findings set out here.

In the assay the test system is Molt-4-luc leukemia. The settings on record: positive control group.

Method: The objective was to evaluate the anti-tumor efficacy of different compounds in leukemia model in Balb/c nude mice.
Female Balb/c nude mice, with a body weight of approximately 20 grams, were obtained from an approved vendor (Shanghai BK Laboratory Animal Co., LTD., Shanghai, China). Upon arrival, animals were assessed as to their general health by a member of a veterinary staff or authorized personnel. Animals were acclimated for at least three days (upon arrival at the experiment room) before being used for the study. Animals were housed in groups during acclimation and individually housed during in-life. […] Temperature and relative humidity were monitored daily. […]
The tumor cells were routinely subcultured twice weekly. The cells growing in an exponential growth phase were harvested and counted for tumor inoculation. […]
Mice were randomly assigned to 16 groups (vehicle control, positive control, and 14 testing article groups) based on the body weight. […] Whole body and metastatic bioluminescence were measured and recorded.
The inoculated mice were weighted and intraperitoneally injected luciferin at 150 mg/kg. […] The bioluminescence of the whole animal body, including primary and metastatic tumors, was measured and images are recorded.
Bioluminescence (BL) of the whole animal body, including primary and metastatic tumors, was measured and images were recorded using a fixed intensity scale. […]

With `O=P1(N(CCCl)CCCl)NCCCO1` (centres unmarked) [Cyclophosphamide], the “outcome until day 150” value is “died”. Moreover, under “day 111 after cell injection, the mouse showed bioluminescence signal”, the mice died result is reported as “one”.
